Test results from patent publication US9260439B2, “Dihydropyrrolopyrimidine derivatives” (PFIZER INC., priority 2014, dated 2016).

What follows are compounds tested against truncated PI3Kα (p110α/iSH2 p85α) (Homo sapiens (Human), UniProt P42336) (assay: PI3KA_Act fluorescence polarization kinase assay (Ki)). Conditions: 1 mM ATP.
truncated PI3Kα (p110α/iSH2 p85α), sequence (P42336 whole entry, the tested form may be a part): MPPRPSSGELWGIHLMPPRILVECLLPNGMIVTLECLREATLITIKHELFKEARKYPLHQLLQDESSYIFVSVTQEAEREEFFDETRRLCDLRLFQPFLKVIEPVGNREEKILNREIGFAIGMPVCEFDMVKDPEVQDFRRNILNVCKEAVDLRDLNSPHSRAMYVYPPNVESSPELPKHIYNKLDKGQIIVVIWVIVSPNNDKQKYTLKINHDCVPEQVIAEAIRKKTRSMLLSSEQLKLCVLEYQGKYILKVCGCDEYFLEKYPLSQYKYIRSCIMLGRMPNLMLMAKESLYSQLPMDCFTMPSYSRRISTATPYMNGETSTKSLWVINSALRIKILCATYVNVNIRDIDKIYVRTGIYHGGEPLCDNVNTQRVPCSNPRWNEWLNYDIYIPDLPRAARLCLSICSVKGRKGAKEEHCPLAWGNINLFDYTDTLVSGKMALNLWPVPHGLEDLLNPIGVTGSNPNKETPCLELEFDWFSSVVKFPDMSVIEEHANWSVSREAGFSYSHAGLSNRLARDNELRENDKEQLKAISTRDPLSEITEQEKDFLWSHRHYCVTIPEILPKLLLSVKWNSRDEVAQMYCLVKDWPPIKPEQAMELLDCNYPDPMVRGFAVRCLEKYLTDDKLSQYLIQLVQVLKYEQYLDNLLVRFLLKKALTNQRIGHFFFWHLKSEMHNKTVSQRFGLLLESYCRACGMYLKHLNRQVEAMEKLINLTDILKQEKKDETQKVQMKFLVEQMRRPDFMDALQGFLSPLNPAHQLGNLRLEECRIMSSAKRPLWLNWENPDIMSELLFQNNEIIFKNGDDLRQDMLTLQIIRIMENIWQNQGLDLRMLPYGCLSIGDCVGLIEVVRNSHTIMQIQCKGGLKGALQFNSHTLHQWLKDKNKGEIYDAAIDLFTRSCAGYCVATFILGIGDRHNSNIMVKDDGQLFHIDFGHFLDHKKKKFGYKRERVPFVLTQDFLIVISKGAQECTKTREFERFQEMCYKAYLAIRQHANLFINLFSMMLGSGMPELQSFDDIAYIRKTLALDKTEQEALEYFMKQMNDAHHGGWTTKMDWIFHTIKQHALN
Type: biochemical
How it was run: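 p110α/iSH2 p85α (0.5 nM) was reacted with 30 μM sonicated PIP2 in 50 mM HEPES pH 7.4, 150 mM NaCl, 5 mM MgCl2, 1 mM DTT and 0.05% CHAPS for 30 min at room temperature, then stopped with EDTA. PIP3 was detected by fluorescence polarization (GST-Grp1 PH domain/TAMRA-PIP3), and Ki came from a Morrison tight-binding fit.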
For `C[C@H]1COCCN1c1nc(-c2cnc(N)nc2)c2c(n1)N(C1CN(C(=O)C3(C)CC3)C1)CC2` [Example 458, (3-{4-(2-aminopyrimidin-5-yl)-2-[(3S)-3-methylmorpholin-4-yl]-5,6-dihydro-7H-pyrrolo[2,3-d]pyrimidin-7-yl}azetidin-1-yl)(1-methylcyclopropyl)methanone], the “PI3KA_Act Ki” value was 0.159 nM.
`C[C@H]1COCCN1c1nc(-c2cnc(N)nc2)c2c(n1)N(C1(C)CN(C(=O)C3(C)CC3)C1)CC2` [Example 459, (3-{4-(2-aminopyrimidin-5-yl)-2-[(3S)-3-methylmorpholin-4-yl]-5,6-dihydro-7H-pyrrolo[2,3-d]pyrimidin-7-yl}-3-methylazetidin-1-yl)(1-methylcyclopropyl)methanone] was tested, and the “PI3KA_Act Ki” value was 0.057 nM.
With `COC(=O)N1CC(C)(N2CCc3c(-c4cnc(N)nc4)nc(N4CCOC[C@@H]4C)nc32)C1` [Example 460, methyl 3-{4-(2-aminopyrimidin-5-yl)-2-[(3S)-3-methylmorpholin-4-yl]-5,6-dihydro-7H-pyrrolo[2,3-d]pyrimidin-7-yl}-3-methylazetidine-1-carboxylate] the “PI3KA_Act Ki” value was 0.047 nM.
For `C[C@H]1COCCN1c1nc(-c2cnc(N)nc2)c2c(n1)N(C1(C)CN(C(=O)OC(C)(C)C)C1)CC2` [Example 461, tert-butyl 3-{4-(2-aminopyrimidin-5-yl)-2-[(3S)-3-methylmorpholin-4-yl]-5,6-dihydro-7H-pyrrolo[2,3-d]pyrimidin-7-yl}-3-methylazetidine-1-carboxylate], the “PI3KA_Act Ki” value was 0.040 nM.
For `CNC(=O)N1CC(C)(N2CCc3c(-c4cnc(N)nc4)nc(N4CCOC[C@@H]4C)nc32)C1` [Example 462, 3-{4-(2-aminopyrimidin-5-yl)-2-[(3S)-3-methylmorpholin-4-yl]-5,6-dihydro-7H-pyrrolo[2,3-d]pyrimidin-7-yl}-N,3-dimethylazetidine-1-carboxamide], the “PI3KA_Act Ki” value was 0.057 nM.
For `C[C@H]1COCCN1c1nc(-c2cnc(N)nc2)c2c(n1)N(C1CN(S(=O)(=O)C3CCC3)C1)CC2` [Example 463, 5-{7-[1-(cyclobutylsulfonyl)azetidin-3-yl]-2-[(3S)-3-methylmorpholin-4-yl]-6,7-dihydro-5H-pyrrolo[2,3-d]pyrimidin-4-yl}pyrimidin-2-amine], the “PI3KA_Act Ki” value was 0.169 nM.
With `C[C@H]1COCCN1c1nc(-c2cnc(N)nc2)c2c(n1)N(C1CN(S(=O)(=O)N3CCC3)C1)CC2` [Example 464, 5-{7-[1-(azetidin-1-ylsulfonyl)azetidin-3-yl]-2-[(3S)-3-methylmorpholin-4-yl]-6,7-dihydro-5H-pyrrolo[2,3-d]pyrimidin-4-yl}pyrimidin-2-amine] the “PI3KA_Act Ki” value was 0.193 nM.
In the case of `C[C@H]1COCCN1c1nc(-c2cnc(N)nc2)c2c(n1)N([C@@]1(C)CCNC1)CC2.Cl` [Example 465, 5-{2-[(3S)-3-methylmorpholin-4-yl]-7-[(3S)-3-methylpyrrolidin-3-yl]-6,7-dihydro-5H-pyrrolo[2,3-d]pyrimidin-4-yl}pyrimidin-2-amine hydrochloride], the “PI3KA_Act Ki” value is reported as 0.160 nM.
`C[C@H]1COCCN1c1nc(-c2cnc(N)nc2)c2c(n1)N([C@]1(C)CCNC1)CC2.Cl` [Example 466, 5-{2-[(3S)-3-methylmorpholin-4-yl]-7-[(3R)-3-methylpyrrolidin-3-yl]-6,7-dihydro-5H-pyrrolo[2,3-d]pyrimidin-4-yl}pyrimidin-2-amine hydrochloride] was tested, and the “PI3KA_Act Ki” value was 0.303 nM.
For `C[C@@H]1CNC[C@@]1(C)N1CCc2c(-c3cnc(N)nc3)nc(N3CCOC[C@@H]3C)nc21.Cl` [Example 467, 5-{7-[(3S,4R)-3,4-dimethylpyrrolidin-3-yl]-2-[(3S)-3-methylmorpholin-4-yl]-6,7-dihydro-5H-pyrrolo[2,3-d]pyrimidin-4-yl}pyrimidin-2-amine hydrochloride], the “PI3KA_Act Ki” value was 0.106 nM.
`C[C@H]1COCCN1c1nc(-c2cnc(N)nc2)c2c(n1)N([C@@]1(C)CNC[C@@H]1C)CC2.Cl` [Example 468, 5-{7-[(3R,4S)-3,4-dimethylpyrrolidin-3-yl]-2-[(3S)-3-methylmorpholin-4-yl]-6,7-dihydro-5H-pyrrolo[2,3-d]pyrimidin-4-yl}pyrimidin-2-amine hydrochloride] was tested, and the “PI3KA_Act Ki” value was 0.634 nM.
